ChEMBL document CHEMBL1201862, “PubChem BioAssay data set” (2004)
The source made the active and inactive calls.

What was measured:
[1] = biological target: T1, Endoribonuclease toxin MazF (Escherichia coli K-12, UniProt P0AE70); test: SAR analysis of small molecule activators of the MazEF TA System via a fluorescence-based single-stranded RNase assay counterscreen. [Related pubchem assays (depositor defined):AID504720, AID504743]; format: functional
T1 sequence (P0AE70 whole entry): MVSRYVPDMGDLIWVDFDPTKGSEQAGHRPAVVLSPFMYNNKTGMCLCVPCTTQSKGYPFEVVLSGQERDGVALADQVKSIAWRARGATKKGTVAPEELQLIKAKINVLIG

[2] = biological target: T1, Endoribonuclease toxin MazF; test: MazF endoribonuclease activators, SAR follow-up, biochemical, fluorescence, single-stranded RNA substrate (AID 588603); format: functional
[3] = biological target: T1, Endoribonuclease toxin MazF; test: MazF toxin RNase activators, dose response, biochemical, fluorescence, single-stranded RNA substrate, uHTS hits (AID 588481); format: functional
[4] = tested on: MEF; test: SAR analysis of small molecule cytotoxicity of MazEF TA System activators in embryonic fibroblast (MEF) cells. [Related pubchem assays (depositor defined):AID504720, AID504743]; format: functional; conditions: Mus musculus
[5] = biological target: T1, Endoribonuclease toxin MazF; test: fluorescent RNA oligo signal without MazF, dose response, counter-screen for MazEF activator project, biochemical, fluorescence, single-stranded RNase substrate (AID 588502); format: functional
[6] = biological target: T2, Zinc finger protein mex-5 (Caenorhabditis elegans, UniProt Q9XUB2); test: MEX-5/TCR-2 RNA interaction inhibitors, dose response, biochemical, C. elegans, fluorescence polarization (AID 1960)
T2 sequence (Q9XUB2 whole entry): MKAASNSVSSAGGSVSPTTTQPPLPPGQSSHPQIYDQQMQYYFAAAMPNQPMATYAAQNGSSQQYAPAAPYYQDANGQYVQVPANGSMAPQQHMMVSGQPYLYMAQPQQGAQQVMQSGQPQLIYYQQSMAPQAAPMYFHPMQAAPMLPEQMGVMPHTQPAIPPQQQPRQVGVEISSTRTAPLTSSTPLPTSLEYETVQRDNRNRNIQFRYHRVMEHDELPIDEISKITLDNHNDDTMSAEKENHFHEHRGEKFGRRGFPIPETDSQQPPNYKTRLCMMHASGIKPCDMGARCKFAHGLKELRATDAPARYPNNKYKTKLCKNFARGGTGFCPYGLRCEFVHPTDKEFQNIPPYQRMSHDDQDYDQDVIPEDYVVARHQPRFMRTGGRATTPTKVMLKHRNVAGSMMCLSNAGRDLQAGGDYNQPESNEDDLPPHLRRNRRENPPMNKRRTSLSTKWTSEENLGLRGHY

[7] = biological target: T3, Small ubiquitin-related modifier 1 (Homo sapiens, UniProt P63165); test: inhibitors of SUMO1 peptide binding, dose response, biochemical, fluorescence polarization, uHTS hits (AID 624382); format: functional; conditions: read-out: IC50_Mean
T3 sequence (P63165 whole entry, the tested form may be a part): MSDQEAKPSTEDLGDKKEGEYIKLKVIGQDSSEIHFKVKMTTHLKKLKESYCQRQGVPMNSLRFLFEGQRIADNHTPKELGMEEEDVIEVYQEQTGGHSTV

[8] = biological target: T4, RNA-binding protein pos-1 (Caenorhabditis elegans, UniProt G5EF15); test: inhibitors of POS-1/mex-3 RNA binding, dose response, biochemical, fluorescence polarization (AID 1964);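 further: purified POS-1 fused to maltose binding protein made in E. coli; potency of compounds blocking POS-1 binding to fluorescent RNA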
T4 sequence (G5EF15 whole entry): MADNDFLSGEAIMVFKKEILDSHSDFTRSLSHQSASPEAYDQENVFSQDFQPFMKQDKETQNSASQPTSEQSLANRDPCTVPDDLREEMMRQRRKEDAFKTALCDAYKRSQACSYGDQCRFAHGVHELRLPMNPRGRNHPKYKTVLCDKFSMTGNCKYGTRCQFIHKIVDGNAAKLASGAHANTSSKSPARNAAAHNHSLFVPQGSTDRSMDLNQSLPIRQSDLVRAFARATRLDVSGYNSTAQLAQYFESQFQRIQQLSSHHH

[9] = biological target: Beta-adrenergic receptor kinase 1 (Homo sapiens, UniProt P25098); test: aptamer displacement from bead-bound GRK2 – biochemical, cherry pick 1, bead flow cytometry, dose response (AID 504500)
Sequence of Beta-adrenergic receptor kinase 1 (P25098 whole entry): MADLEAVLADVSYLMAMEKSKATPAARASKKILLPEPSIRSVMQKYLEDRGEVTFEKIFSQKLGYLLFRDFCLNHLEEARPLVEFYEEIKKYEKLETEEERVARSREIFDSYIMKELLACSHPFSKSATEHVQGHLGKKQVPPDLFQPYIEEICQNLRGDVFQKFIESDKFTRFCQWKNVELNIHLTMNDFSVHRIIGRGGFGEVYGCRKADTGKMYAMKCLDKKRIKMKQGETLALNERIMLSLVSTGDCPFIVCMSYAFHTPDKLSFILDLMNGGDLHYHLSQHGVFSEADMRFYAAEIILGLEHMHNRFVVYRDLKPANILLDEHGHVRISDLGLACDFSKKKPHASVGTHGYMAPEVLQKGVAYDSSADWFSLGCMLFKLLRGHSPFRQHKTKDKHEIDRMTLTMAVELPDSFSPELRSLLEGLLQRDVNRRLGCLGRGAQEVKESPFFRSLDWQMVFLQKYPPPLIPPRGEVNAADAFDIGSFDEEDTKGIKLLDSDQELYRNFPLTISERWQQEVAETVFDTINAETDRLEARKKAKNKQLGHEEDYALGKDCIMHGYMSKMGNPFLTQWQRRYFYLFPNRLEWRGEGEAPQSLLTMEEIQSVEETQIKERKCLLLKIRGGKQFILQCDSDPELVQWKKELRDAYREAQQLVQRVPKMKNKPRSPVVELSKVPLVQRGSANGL

[10] = biological target: Induced myeloid leukemia cell differentiation protein Mcl-1 (Homo sapiens, UniProt Q07820); test: MCL1-BIM BH3 interaction inhibitors, dose response, biochemical, fluorescence polarization, BIM-BH3 peptide, 1536-well (AID 2217)
Sequence of Induced myeloid leukemia cell differentiation protein Mcl-1 (Q07820 whole entry): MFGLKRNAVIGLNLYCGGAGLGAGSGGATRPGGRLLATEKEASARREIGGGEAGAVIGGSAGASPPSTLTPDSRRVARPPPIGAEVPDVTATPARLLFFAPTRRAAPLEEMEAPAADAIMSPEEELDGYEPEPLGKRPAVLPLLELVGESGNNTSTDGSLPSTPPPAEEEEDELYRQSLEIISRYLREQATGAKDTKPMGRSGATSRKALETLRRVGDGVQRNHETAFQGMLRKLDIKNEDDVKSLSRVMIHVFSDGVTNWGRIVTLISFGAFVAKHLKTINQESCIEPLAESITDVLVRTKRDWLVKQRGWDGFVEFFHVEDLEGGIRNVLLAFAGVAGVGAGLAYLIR

[11] = tested on: HeLa; test: HeLa cell cytotoxicity, dose response, cytotoxicity control, 24 h, cherry-picked samples (AID 504726); format: functional, cell-based; conditions: Homo sapiens;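 further: potency for cytotoxicity as loss of luminescence signal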
[12] = biological target: Bcl-2-like protein 1 (Homo sapiens, UniProt Q07817); test: BCL-XL inhibitors, dose response, selectivity assay for MCL1 inhibitor project, biochemical, fluorescence polarization, 1536-well (AID 2218)
[13] = biological target: DNA (cytosine-5)-methyltransferase 1 (Homo sapiens, UniProt P26358); test: DNMT1 methyltransferase inhibitors, confirmation, biochemical, fluorescent molecular beacon (AID 602386); format: functional
Sequence of DNA (cytosine-5)-methyltransferase 1 (P26358 whole entry): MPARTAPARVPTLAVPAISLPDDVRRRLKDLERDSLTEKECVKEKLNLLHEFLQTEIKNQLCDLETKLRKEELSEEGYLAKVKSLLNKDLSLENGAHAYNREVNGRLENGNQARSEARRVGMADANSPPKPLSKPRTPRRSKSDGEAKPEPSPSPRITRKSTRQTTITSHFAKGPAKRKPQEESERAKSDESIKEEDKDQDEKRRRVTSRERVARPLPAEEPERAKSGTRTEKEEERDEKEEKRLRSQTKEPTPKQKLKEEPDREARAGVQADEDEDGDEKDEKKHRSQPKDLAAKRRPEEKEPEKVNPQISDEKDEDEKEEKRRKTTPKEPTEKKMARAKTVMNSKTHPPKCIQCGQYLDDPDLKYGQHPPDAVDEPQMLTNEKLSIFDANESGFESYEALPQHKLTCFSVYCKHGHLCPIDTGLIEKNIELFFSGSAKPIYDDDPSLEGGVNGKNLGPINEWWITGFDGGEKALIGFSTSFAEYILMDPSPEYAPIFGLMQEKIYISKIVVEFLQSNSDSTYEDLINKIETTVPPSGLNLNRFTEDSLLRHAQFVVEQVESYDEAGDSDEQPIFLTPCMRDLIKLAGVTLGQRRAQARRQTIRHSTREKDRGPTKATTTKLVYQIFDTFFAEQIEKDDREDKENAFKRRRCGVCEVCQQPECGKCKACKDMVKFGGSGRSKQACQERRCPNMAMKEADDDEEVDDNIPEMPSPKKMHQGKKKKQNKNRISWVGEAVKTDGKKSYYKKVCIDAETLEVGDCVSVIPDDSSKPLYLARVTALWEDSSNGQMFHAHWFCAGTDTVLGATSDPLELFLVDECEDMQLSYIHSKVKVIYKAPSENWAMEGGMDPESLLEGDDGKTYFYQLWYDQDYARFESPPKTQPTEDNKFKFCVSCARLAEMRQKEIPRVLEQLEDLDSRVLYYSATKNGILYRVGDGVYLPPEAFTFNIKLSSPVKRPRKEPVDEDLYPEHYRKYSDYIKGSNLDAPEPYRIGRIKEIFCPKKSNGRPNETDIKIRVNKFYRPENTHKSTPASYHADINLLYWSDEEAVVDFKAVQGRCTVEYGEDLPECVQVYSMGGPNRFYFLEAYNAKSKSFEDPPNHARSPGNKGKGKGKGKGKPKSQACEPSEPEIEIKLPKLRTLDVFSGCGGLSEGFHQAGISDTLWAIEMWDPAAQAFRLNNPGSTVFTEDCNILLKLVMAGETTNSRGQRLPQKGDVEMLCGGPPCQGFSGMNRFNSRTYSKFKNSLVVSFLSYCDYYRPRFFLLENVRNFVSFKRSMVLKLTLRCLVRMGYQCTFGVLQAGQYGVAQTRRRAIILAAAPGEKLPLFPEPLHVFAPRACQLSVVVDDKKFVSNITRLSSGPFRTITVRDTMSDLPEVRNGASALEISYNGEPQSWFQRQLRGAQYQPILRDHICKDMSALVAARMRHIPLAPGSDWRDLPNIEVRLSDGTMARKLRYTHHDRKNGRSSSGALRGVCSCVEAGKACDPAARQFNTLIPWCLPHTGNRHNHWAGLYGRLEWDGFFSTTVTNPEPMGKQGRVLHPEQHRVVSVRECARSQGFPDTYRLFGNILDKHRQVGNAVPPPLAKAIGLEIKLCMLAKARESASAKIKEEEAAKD

[14] = biological target: ORF 73 (Human herpesvirus 8, UniProt O40947); test: inhibitors of C-LANA binding to LBS DNA, dose response, biochemical, fluorescence polarization, cherry-picked samples (AID 504725); design: species or system Human gammaherpesvirus 8;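 further: fluorescence polarization of a labeled DNA duplex reporting LANA DNA binding; potency is for inhibitors that block LANA binding to the DNA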
Sequence of ORF 73 (O40947 whole entry): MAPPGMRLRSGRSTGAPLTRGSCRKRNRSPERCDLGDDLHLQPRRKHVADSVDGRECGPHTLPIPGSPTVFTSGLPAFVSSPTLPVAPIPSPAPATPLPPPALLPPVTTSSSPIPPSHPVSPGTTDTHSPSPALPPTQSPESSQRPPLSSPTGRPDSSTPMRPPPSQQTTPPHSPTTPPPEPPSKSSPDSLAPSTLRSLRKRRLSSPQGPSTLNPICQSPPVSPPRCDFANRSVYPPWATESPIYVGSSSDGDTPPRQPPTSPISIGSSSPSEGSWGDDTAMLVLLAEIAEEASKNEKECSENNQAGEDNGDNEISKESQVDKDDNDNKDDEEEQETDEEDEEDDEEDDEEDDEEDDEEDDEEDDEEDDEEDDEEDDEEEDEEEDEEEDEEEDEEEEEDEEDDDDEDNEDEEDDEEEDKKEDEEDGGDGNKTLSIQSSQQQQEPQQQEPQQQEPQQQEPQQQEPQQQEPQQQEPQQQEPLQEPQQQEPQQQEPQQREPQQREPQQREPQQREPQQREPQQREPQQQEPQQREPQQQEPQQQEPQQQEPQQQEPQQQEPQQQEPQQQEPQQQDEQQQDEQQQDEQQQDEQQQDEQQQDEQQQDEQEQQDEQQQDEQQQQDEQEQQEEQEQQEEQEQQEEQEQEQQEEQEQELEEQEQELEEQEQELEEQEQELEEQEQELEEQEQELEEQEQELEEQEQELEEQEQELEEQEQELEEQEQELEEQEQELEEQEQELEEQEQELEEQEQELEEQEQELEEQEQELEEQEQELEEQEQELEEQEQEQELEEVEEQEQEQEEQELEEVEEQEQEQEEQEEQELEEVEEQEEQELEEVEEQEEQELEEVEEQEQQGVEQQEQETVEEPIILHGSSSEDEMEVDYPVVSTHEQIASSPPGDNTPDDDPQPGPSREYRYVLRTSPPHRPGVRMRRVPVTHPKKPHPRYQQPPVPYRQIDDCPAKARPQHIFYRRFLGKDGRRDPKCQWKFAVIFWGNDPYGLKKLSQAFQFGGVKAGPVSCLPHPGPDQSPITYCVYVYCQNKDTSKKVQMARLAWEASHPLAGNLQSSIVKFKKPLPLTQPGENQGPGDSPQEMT

[15] = biological target: T3, Small ubiquitin-related modifier 1; test: inhibitors of SUMO1 partner interactions, dose response, biochemical, FRET (AID 624383); format: functional; conditions: read-out: IC50_Mean
[16] = tested on: Vero; test: Vero cell cytotoxicity, cytotoxicity control for flavivirus capping enzyme inhibitors (AID 588742); format: functional; conditions: Chlorocebus sabaeus
[17] = biological target: T5, Caspase-6 (Homo sapiens, UniProt P55212); test: human caspase-6 inhibitors, dose response, biochemical, VEID-R110 fluorescence, cherry-pick (AID 720632)
T5 sequence (P55212 whole entry): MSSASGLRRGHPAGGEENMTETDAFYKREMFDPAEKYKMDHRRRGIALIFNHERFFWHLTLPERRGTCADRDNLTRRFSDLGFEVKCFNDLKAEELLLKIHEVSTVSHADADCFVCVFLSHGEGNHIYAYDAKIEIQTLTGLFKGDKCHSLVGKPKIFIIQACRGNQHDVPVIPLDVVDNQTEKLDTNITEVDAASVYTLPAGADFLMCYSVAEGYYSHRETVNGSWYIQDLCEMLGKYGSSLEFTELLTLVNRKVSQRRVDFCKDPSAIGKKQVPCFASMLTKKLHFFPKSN

[18] = biological target: Protein S100-A4 (Homo sapiens, UniProt P26447); test: S100A4-myosin IIA binding inhibitor potency, dose response, biochemical, fluorescence polarization, cherry-picked hits (AID 687001); format: functional
Sequence of Protein S100-A4 (P26447 whole entry): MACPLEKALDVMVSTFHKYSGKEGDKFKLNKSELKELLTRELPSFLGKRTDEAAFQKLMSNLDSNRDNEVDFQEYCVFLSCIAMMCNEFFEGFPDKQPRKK

[19] = tested on: INS1; test: beta cell apoptosis inhibitors, cytokine rescue, dose response, luminescence, retest (AID 449756); format: functional, cell-based; conditions: Rattus norvegicus;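 further: cell death triggered by IL-1 beta plus TNF-alpha plus IFN-gamma mixture; protective hits raise ATP signal compared with cytokine alone wells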
[20] = biological target: T6, Heat shock factor protein 1 (Mus musculus, UniProt P38532); test: inhibition of MG132-induced HSE-luciferase signal, confirmation, cell-based, NIH3T3, luminescence, dose retest (AID 2382); format: functional;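 further: NIH3T3 fibroblasts with HSF1-driven luciferase reporter stressed by proteasome inhibitor MG132; luminescence from HSF1-driven luciferase expression after 8 hours of MG132 stress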
T6 sequence (P38532 whole entry): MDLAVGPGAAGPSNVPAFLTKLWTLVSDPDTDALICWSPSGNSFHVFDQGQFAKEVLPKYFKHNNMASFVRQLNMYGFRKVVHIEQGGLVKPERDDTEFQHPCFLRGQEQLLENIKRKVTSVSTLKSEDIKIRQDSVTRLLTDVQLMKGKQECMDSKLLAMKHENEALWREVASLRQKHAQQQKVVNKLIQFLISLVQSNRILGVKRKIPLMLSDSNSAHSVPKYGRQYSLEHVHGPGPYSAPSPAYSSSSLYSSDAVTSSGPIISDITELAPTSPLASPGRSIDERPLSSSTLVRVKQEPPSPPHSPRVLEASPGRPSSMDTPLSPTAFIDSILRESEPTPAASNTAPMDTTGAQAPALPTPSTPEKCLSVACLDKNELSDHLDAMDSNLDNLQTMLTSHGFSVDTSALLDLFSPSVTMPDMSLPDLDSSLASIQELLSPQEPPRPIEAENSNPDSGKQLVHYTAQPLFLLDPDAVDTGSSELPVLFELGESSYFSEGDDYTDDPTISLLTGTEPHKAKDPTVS

[21] = biological target: Genome polyprotein (dengue virus type 2, UniProt P29990); test: Dengue-2 NS5 methyltransferase inhibitors, primary screen, biochemical, confirmation dose response (AID 588689); format: functional
Sequence of Genome polyprotein (P29990 2492-3391 limits assumed): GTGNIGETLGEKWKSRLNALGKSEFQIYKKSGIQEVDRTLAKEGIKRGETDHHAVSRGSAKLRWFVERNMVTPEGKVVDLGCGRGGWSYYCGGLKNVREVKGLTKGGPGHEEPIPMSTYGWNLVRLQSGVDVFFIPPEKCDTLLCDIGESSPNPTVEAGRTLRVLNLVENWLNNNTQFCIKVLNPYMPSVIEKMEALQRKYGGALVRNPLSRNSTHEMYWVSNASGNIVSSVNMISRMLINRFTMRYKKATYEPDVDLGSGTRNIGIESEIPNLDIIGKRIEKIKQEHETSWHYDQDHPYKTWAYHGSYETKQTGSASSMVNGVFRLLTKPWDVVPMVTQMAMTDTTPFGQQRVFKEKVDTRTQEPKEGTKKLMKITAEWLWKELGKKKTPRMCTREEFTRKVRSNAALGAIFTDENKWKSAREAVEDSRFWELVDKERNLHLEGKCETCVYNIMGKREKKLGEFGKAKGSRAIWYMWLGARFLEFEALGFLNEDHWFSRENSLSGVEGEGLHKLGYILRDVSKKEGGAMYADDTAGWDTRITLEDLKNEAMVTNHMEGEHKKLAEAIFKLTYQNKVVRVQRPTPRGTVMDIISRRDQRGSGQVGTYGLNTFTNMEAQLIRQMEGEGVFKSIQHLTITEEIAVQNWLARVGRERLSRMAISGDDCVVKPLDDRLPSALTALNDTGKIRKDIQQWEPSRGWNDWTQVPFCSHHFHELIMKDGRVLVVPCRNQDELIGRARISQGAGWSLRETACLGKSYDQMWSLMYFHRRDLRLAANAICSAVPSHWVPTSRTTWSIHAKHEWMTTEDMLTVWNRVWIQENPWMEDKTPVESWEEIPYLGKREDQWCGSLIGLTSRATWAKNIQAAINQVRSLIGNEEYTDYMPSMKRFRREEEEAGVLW

[22] = biological target: T7, Protein RecA (Mycobacterium tuberculosis, UniProt P9WHJ3); test: Fluorescence Cell-Free Homogeneous Dose Retest to Identify Inhibitors of RecA-Intein Splicing Activity. [Related pubchem assays (depositor defined):AID2097, AID2223, AID489010, AID492950]; format: functional
T7 sequence (P9WHJ3 whole entry): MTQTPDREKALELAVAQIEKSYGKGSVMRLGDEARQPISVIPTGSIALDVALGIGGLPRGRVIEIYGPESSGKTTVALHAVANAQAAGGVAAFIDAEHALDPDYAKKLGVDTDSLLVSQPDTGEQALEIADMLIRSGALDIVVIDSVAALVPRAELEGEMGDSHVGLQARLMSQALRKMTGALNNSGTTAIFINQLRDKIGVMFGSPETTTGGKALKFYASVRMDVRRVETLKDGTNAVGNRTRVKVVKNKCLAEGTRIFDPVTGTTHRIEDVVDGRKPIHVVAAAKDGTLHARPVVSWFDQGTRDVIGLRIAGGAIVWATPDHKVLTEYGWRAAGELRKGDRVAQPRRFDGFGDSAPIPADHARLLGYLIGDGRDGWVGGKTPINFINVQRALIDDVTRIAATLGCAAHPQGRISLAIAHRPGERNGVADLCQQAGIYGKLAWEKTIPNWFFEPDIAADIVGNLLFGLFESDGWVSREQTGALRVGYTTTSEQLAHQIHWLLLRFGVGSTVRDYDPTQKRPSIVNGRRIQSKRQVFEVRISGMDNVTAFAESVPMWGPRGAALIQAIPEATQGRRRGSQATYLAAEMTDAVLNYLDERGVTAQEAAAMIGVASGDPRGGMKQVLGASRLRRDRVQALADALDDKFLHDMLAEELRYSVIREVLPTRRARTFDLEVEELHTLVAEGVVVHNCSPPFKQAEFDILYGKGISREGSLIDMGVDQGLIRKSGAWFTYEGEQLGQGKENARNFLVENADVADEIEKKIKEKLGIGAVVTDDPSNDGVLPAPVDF

[23] = biological target: T8, Tyrosyl-DNA phosphodiesterase 2 (Homo sapiens, UniProt O95551); test: human TDP2 enzyme inhibitors, dose response, biochemical, epi absorbance, IC50 (AID 743297)
T8 sequence (O95551 whole entry): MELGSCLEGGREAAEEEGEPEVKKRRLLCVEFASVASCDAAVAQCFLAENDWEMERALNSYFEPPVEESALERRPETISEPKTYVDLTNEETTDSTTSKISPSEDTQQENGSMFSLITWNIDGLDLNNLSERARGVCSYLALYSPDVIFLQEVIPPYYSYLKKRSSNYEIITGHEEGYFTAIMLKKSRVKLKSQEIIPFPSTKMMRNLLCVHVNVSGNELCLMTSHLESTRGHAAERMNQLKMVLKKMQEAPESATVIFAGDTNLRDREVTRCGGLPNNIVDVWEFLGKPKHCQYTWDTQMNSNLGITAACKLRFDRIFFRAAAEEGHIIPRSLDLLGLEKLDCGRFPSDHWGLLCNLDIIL

[24] = biological target: T9, Replicative DNA helicase DnaB (Mycobacterium tuberculosis, UniProt P9WMR3); test: DnaB intein splicing inhibitors, dose response, biochemical, cell-free fluorescence (AID 449749); format: functional
T9 sequence (P9WMR3 whole entry): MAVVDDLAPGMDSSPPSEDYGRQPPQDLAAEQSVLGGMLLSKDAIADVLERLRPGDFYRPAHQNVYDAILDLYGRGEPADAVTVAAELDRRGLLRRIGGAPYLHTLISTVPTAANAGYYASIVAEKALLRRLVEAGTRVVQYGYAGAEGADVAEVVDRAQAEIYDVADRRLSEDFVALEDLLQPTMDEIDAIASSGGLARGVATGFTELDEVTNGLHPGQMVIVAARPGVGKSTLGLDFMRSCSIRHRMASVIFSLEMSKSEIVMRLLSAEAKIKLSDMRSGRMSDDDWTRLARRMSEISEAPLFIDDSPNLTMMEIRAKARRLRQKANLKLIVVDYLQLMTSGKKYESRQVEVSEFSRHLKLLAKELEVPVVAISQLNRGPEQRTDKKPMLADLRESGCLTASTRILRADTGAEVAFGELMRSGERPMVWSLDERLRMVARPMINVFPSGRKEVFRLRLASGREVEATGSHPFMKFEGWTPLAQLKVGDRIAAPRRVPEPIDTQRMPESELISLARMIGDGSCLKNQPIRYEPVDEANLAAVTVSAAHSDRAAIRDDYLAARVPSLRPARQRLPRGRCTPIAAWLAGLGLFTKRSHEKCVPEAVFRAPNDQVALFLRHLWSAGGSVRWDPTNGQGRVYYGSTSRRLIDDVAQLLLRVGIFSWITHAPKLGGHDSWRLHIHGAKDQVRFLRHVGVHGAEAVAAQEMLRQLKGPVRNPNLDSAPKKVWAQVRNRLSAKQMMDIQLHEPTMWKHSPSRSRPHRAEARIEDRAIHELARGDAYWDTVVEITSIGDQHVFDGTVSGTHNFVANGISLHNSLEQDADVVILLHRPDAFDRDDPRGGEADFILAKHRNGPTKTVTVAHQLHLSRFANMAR

Compound: Cc1ccc(C(=O)Oc2cc(N)n(S(=O)(=O)c3ccc(F)cc3)n2)cc1
- EC50 [1]: > 99 µM (inactive)
- EC50 [2]: > 99 µM (inactive)
- EC50 [3]: 5.26 µM (active)
- CC50 [4]: > 99 µM (inactive)
- EC50 [5]: 4.1 µM (active)

Compound: O=C(O)c1ccc(-n2cccc2/C=C2/SC(=O)N(CC(=O)N3CCCC3)C2=O)cc1
- EC50 [6]: 78.2 µM (active)
- IC50 [7]: > 66.6 µM (inactive)
- EC50 [8]: 89 µM (active)
- EC50 [9]: 33 µM (inactive)
- IC50 [10]: 15.9 µM (not active)
- AC50 [11]: 44.7 µM (active)
- IC50 [12]: 104 µM (not active)
- IC50 [13]: 3.5 µM (active)
- AC50 [14]: 30.3 µM (active)
- IC50 [15]: 6.13 µM (active)

Compound: CCC(CNc1cc(OC)cc2cccnc12)NC1CCCCC1 (centres undefined)
- CC50 [16]: > 40 µM (active)
- AC50 [17]: 39 µM (active)
- AC50 [18]: 5.07 µM (active)
- AC50 [19]: 7.62 µM (active)
- EC50 [20]: > 195 µM (not active)
- IC50 [21]: 39.2 µM (active)
- EC50 [22]: 1.95 µM (active)
- IC50 [23]: 113 µM (inactive)
- AC50 [24]: > 380 µM (inactive)
